According to patent publication US20250145608A1, “KRAS DEGRADING COMPOUNDS COMPRISING ANNULATED 2-AMINO-3-CYANO THIOPHENES” (Boehringer Ingelheim Int'l GmbH Corp., priority 2021, published 2025):

Tests used:
Assay type in all cases: cell-based
SAS cells = assay: SAS CTG proliferation assay (120 h) (HNSCC, wt amplified)
Method in brief: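 SAS cells plated at 300 per well in DMEM:F12 with 10% FCS and left overnight, then given compounds acoustically. After 120 h exposure, viability read by CellTiter-Glo as percent of DMSO control. IC50 from four-parameter non-linear regression.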

KRAS4B WT = biological target: T1, KRAS4B WT (Homo sapiens, UniProt P01116); assay: HiBit KRAS4B mutant spectrum degradation assay, KRAS4B WT in GP5d cells (18 h); conditions: KRAS mutation G12WT
T1 construct: HiBit; expressed in transfected cells; host or cells: GP5d cells (ECACC 95090715), stably transduced with lentivirus, CMV promoter
T1 sequence (P01116 1-188 isoform P01116-2): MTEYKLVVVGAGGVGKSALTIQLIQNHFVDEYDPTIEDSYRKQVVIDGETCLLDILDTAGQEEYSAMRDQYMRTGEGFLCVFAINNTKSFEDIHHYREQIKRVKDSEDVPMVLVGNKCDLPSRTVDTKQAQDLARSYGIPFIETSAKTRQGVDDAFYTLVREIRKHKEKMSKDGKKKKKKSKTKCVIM
Source text: (§1) The therapeutically relevant mutant KRAS constructs (WT, G12C, G12D, G12V, G13D) were obtained by site directed mutagenesis using a KRAS4B WT cDNA construct as a template. GP5d cells (ECACC Cat. No. 95090715) were transduced with lentiviral vectors expressing mutant KRAS4B cDNA under control of a CMV promoter. Stably transduced cells were selected using a neomycin selectable marker encoded on the construct.
(§2) To assess PROTAC-mediated degradation of various KRAS mutants, GP5d cells stably transduced with KRAS4B constructs as described above were seeded at 25000 cells per well in 100 μL Dulbecco's Modified Eagle medium (Sigma cat. no. D6429) supplemented with 10% fetal calf serum into white bottom opaque 96 well plates (Perkin Elmer cat no. 5680). Plates were incubated at 37° C., 5% CO2 in a humidified incubator over night to allow the cells to adhere. […] Plates were further incubated at 37° C. for 18 hours. Following incubation, 100 μL per well Promega Nano-Glo HiBit lytic detection reagent mix (Promega Nano-Glo HiBit Lytic Detection System #N3050), prepared according to the manufacturer's instructions in the kit, were added. To allow for adequate cell lysis, plates were incubated on an orbital shaker for 15 min and further incubated 30 min at room temperature. Upon completion of cell lysis, luminescence was measured using an Envision plate reader using the Ultrasensitive Luminescence Protocol for 96 well plates. Luminescence levels were normalized by the values obtained with DMSO-treated samples and plotted as percent of DMSO control. DC50 values were computed using a four parametric logistic model and are reported in nM in Table 65 for representative example (Ex.) compounds of the invention. Dmax values represent the maximal extent of degradation observed and is stated as percent of control (% Ctrl.) treatments in Table 66 for representative example (Ex.) compounds of the invention.

KRAS4B G12D = biological target: T2, KRAS4B G12D (Homo sapiens, UniProt P01116, G12D); assay: HiBit KRAS4B mutant spectrum degradation assay, KRAS4B G12D in GP5d cells (18 h); conditions: KRAS mutation G12D
T2 construct: HiBit; expressed in transfected cells; host or cells: GP5d cells (ECACC 95090715), stably transduced with lentivirus, CMV promoter
T2 sequence (P01116 1-188 isoform P01116-2 G12D): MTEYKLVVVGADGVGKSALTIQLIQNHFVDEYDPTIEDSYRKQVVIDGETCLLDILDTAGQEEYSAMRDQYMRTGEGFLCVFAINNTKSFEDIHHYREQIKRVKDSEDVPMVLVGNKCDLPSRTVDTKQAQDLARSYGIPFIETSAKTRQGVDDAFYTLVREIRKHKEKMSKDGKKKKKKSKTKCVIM
Source text: as §1, §2

KRAS4B G12V = biological target: T3, KRAS4B G12V (Homo sapiens, UniProt P01116, G12V); assay: HiBit KRAS4B mutant spectrum degradation assay, KRAS4B G12V in GP5d cells (18 h); conditions: KRAS mutation G12V
T3 construct: HiBit; expressed in transfected cells; host or cells: GP5d cells (ECACC 95090715), stably transduced with lentivirus, CMV promoter
T3 sequence (P01116 1-188 isoform P01116-2 G12V): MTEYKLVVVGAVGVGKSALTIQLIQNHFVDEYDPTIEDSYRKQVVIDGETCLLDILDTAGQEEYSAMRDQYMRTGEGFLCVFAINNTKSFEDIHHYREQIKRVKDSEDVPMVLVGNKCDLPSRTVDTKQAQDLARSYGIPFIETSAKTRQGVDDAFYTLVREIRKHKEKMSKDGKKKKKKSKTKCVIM
Source text: as §1, §2

KRAS4B G12C = biological target: T4, KRAS4B G12C (Homo sapiens, UniProt P01116, G12C); assay: HiBit KRAS4B mutant spectrum degradation assay, KRAS4B G12C in GP5d cells (18 h); conditions: KRAS mutation G12C
T4 construct: HiBit; expressed in transfected cells; host or cells: GP5d cells (ECACC 95090715), stably transduced with lentivirus, CMV promoter
T4 sequence (P01116 1-188 isoform P01116-2 G12C): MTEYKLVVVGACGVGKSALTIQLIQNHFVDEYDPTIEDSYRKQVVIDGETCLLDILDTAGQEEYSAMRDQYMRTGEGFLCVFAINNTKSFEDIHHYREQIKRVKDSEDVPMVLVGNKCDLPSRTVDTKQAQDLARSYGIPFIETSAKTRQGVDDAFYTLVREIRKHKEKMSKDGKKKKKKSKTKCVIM
Source text: as §1, §2

A375 cells = assay: A375 CTG proliferation assay (120 h) (melanoma, wt, B-Raf mutant, negative control); conditions: Homo sapiens, A-375, negative control cell line
Experimental: A375 CTG Proliferation Assay (120 h) (Melanoma, Wt, B-Raf Mutant, Negative Control)
A375 cells (ATCC CRL-1619) are dispensed into 384-well plates, flat and clear bottom (Greiner, PNr. 781091) at a density of 300 cells per well in 60 μL DMEM (Sigma D6429)+10% Fetal Calf Serum (HyClone, PNr.: SH30084.03) and incubated at 37° C. in a CO2 incubator overnight. The next day, compounds (10 mM stock in DMSO) are added at logarithmic dose series using the HP Digital Dispenser D300 (Tecan), including DMSO controls. Plates are incubated for 120 h, and cell viability is measured using CellTiter-Glo luminescent cell viability reagent (Promega product code G7570). Viability (stated as percent of control) is defined as relative luminescence units RLU of each well divided by the RLU of cells in DMSO controls. IC50 values are determined from viability measurements by non-linear regression using a four-parameter model.

AsPC-1 cells = assay: AsPC-1 CTG proliferation assay (120 h) (pancreatic cancer, G12D); conditions: Homo sapiens, ASPC1, AsPC-1 proliferation
Method in brief: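 AsPC-1 cells, 2000 per well in RPMI with 10% FCS, seeded overnight, then exposed to compound from DMSO stocks for 120 h. Viability read by CellTiter-Glo luminescence as percent of DMSO controls; IC50 from four-parameter non-linear regression.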

KRAS4B G13D = biological target: T5, KRAS4B G13D (Homo sapiens, UniProt P01116, G13D); assay: HiBit KRAS4B mutant spectrum degradation assay, KRAS4B G13D in GP5d cells (18 h); conditions: KRAS mutation G13D
T5 construct: HiBit; expressed in transfected cells; host or cells: GP5d cells (ECACC 95090715), stably transduced with lentivirus, CMV promoter
T5 sequence (P01116 1-188 isoform P01116-2 G13D): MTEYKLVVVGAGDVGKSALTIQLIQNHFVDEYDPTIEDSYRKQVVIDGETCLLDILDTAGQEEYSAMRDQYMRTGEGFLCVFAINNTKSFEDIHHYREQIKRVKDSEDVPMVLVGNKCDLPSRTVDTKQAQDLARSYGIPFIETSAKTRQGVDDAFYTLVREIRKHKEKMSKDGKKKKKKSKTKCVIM
Source text: as §1, §2

DC50 (KRAS4B WT): 1.7 nM
Dmax at 18 h (KRAS4B WT): 97.5 % Ctrl.
DC50 (KRAS4B G12D): 3.3 nM
Dmax at 18 h (KRAS4B G12D): 95.8 % Ctrl.
DC50 (KRAS4B G12V): 8.7 nM
Dmax at 18 h (KRAS4B G12V): 89.2 % Ctrl.
DC50 (KRAS4B G12C): 3.6 nM
Dmax at 18 h (KRAS4B G12C): 94.7 % Ctrl.
IC50 (A375 cells): ≥ 3000 nM
IC50 (AsPC-1 cells): 183 nM
DC50 (KRAS4B G13D): 2.7 nM
Dmax at 18 h (KRAS4B G13D): 89.7 % Ctrl.
Structure (SMILES): Cc1ncsc1-c1ccc([C@H](CO)NC(=O)[C@@H]2C[C@@H](O)CN2C(=O)[C@H](C(C)C)n2cc(OC(C)CCCN3CCCN(c4nccc(-c5noc([C@@]6(C)CCCc7sc(N)c(C#N)c76)n5)n4)[C@@H](C)C3)nn2)cc1 (stereo partly shown) [I-31]
IC50 (SAS cells): 90 nM
